Experimental data as given in PubChem BioAssay (NCI).
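1) Cells in 96-well plates. 2) Compound, 48 h, 5 concentrations. 3) Linear interpolation between surrounding doses. 4) Unreached endpoint = highest concentration. GI50 is the concentration that inhibits growth by half. Definition used: TGI = concentration required for complete inhibition of growth.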

Tests used:
Experiment in all cases: NCI anticancer screen, dose series, 48 h
786-0 renal = test system: 786-0 renal
A549 NSCLC = test system: A549 NSCLC
CAKI-1 renal = test system: CAKI-1 renal
CCRF-CEM leukemia = test system: CCRF-CEM leukemia
DMS 273 small cell lung = test system: DMS 273 small cell lung
DU-145 prostate = test system: DU-145 prostate
HOP-18 NSCLC = test system: HOP-18 NSCLC
LOX IMVI melanoma = test system: LOX IMVI melanoma
NCI-H23 lung = test system: NCI-H23 lung
T-47D breast = test system: T-47D breast

| SMILES | TGI (786-0 renal) | TGI (A549 NSCLC) | TGI (CAKI-1 renal) | TGI (CCRF-CEM leukemia) | TGI (DMS 273 small cell lung) | TGI (DU-145 prostate) | TGI (HOP-18 NSCLC) | TGI (LOX IMVI melanoma) | TGI (NCI-H23 lung) | TGI (T-47D breast) | GI50 (CCRF-CEM leukemia) |
| --- | --- | --- | --- | --- | --- | --- | --- | --- | --- | --- | --- |
| c1ccc(CN2CCc3[nH]c4ccccc4c3C2)cc1 | 44.5 µM | > 79.8 µM | > 100 µM | > 82.6 µM | > 100 µM | 78.3 µM | > 100 µM | 40.7 µM | > 92.6 µM | 47.2 µM |  |
| C[N+](C)(C)CC1CCC(C[N+](C)(C)C)C1=O (stereo not drawn) | 4.06 µM | 45.8 µM | 1.55 µM | 1.47 µM | 6.37 µM | 30.5 µM | 1.85 µM | 10.3 µM | 8.27 µM | 8.28 µM | 0.258 µM |
| C1OC1CN1CCN(CC2CO2)CC1 (stereo not drawn) | > 100 µM | > 100 µM | > 100 µM | > 100 µM | > 100 µM |  | > 100 µM | > 100 µM | > 81.2 µM |  |  |
| Cc1cc(N(CCC#N)CCC#N)ccc1N=Nc1cc(Cl)ccc1Cl | 28.9 µM | 38.5 µM | 9.68 µM | 19.2 µM | 29.6 µM |  | 22.1 µM | 14.2 µM | 28.1 µM |  |  |
| CN(C)CCC(/C=C/c1ccccc1)=N\Nc1ccc(Cl)c(Cl)c1 | 9.26 µM | 10.6 µM | 7.03 µM | 10.1 µM | 6.42 µM |  | 8.28 µM | 3.71 µM | 8.93 µM |  |  |
| C/C(=N\NC(N)=S)c1ccc(C)c(C)c1 | > 100 µM | > 100 µM | > 100 µM | > 100 µM | > 100 µM |  | > 100 µM | > 100 µM | > 100 µM |  |  |
